This note sets out measurements from US9810700B1, “Fluorogenic calcium ion indicators and methods of using the same” (AAT Bioquest, Inc., priority 2017, dated 2017).

Series [1] in a line: Water solubility comparison of PEGTA compounds and conventional BAPTA calcium indicator AM esters. The class given is physicochemical. The settings on record: PBS, AM ester; for solubility: aqueous buffer, 25° C., read-out: Water solubility at 25° C. (PEGTA Compound).
Series [2] concerns CHO cells stably transfected with muscarinic receptor 1. Nature of the series: Calcium flux assay, indicator AM esters loaded into cells, with or without probenecid. The class given is cell-based. As to conditions: probenecid is not used.
Experimental: In some embodiments, the fluorescent ion indicators are used in a method to measure calcium flux. Cells (e.g., CHO cells) stably transfected with muscarinic receptor 1 are plated—e.g., at 60,000 cells per 100 μl per well in F12 with 5% FBS and 1% glutamine in a 96-well black wall/clear bottom Costar plate—and incubated (e.g., in 5% CO2 at 37° C. overnight). The growth medium is removed and the cells are incubated with a fluorescent ion indicator (e.g., with 100 μl/well of 1-8 μM Fluo-3 AM, Fluo-4 AM or one or more compounds selected from Compound 22, 23, 24, 28, 33, 34, 40, 41 or 188 in Hanks and HEPES buffer for 1 hour at 37° C., 5% CO2) with or without probenecid. Carbachol or ATP is added (e.g., 50 μl/well by NOVOstar, FlexStation or FLIPR) to achieve a final concentration.
Cells expressing a GPCR of interest that signals through calcium are pre-loaded with the indicator AM esters (such as Fluo-3 AM. Fluo-4 AM, Compounds 22, 23, 24, 28, 33, 34, 40, 41 or 188) which can cross cell membrane. […] When the sample cells are stimulated with screening compounds, the receptor triggers a release of intracellular calcium, which then greatly increases the fluorescence of the intracellular indicators. […]
A further series concerns CHO-K1 cells. The series can be described thus: ATP-stimulated calcium response monitored with FlexStation. In kind it is cell-based. As to conditions: in the absence of probenecid; compared with Fluo-4 AM. As to the method:
CHO-K1 cells are seeded overnight at 50,000 cells per 100 μl per well in a 96-well black wall/clear bottom costar plate. The growth medium is removed, and the cells are incubated with 100 μl of Compound 24 and Fluo-4 AM at 5 μM in Hanks and Hepes buffer in the presence of 2.5 mM probenecid for 1 hour at 37° C., 5% CO2 incubator. ATP (10 μM) is added by FlexStation to stimulate cell calcium, and the time-dependent calcium response is monitored with FlexStation.
CHO-K1 cells are seeded overnight at 50,000 cells per 100 μl per well in a 96-well black wall/clear bottom costar plate. The growth medium is removed, and the cells are incubated with 100 μl of Compound 24 and Fluo-4 AM at 5 μM in Hanks and Hepes buffer for 2 hours at 25° C. ATP (50 μL/well) is added by FlexStation to achieve the final desired concentrations.
CHO-K cells are seeded overnight at 50,000 cells per 100 μl per well in a 96-well black wall/clear bottom costar plate. The growth medium is removed, and the cells are incubated with 100 μl of Compound 24 and Fluo-4 AM at 5 μM in Hanks and Hepes buffer in the presence of 2.5 mM probenecid for 1 hour at 37° C., 5% CO2 incubator. ATP (10 μM) is added by FlexStation to stimulate cell calcium, and the time-dependent calcium response is monitored with FlexStation. […]

Values after ≈ are worked out from the molar mass of the structure shown.

`CC(=O)OCOC(=O)CN(CC(=O)OCOC(C)=O)c1ccc(C)cc1OCCOc1cc(-c2c3cc(F)c(=O)cc-3oc3cc(OCOC(C)=O)c(F)cc23)ccc1N(CC(=O)OCOC(C)=O)CC(=O)OCOC(C)=O` [Fluo-4 AM, reference compound]: in series [1], the “Water solubility at 25° C. (BAPTA Compound)” value came out at 1.26 μg/ml PBS. Besides, the “capability of detecting calcium” value in series [2] is “not capable of detecting calcium in some types of cells and tissues”.
Regarding `CC(=O)OCOC(=O)CN(CCOCCOc1cc2c(cc1N(CC(=O)OCOC(C)=O)CC(=O)OCOC(C)=O)C(=O)OC21c2cc(F)c(OC(C)=O)cc2Oc2cc(OC(C)=O)c(F)cc21)CC(=O)OCOC(C)=O` [Compound 22], in series [1], the solubility (commonly the dissolved amount per volume that the medium holds) was determined as 1.63 µg/mL (≈ 1.49 µM).
Regarding `CC(=O)OCOC(=O)CN(CCOCCOc1cc(-c2c3cc(F)c(=O)cc-3oc3cc(OCOC(C)=O)c(F)cc23)ccc1N(CC(=O)OCOC(C)=O)CC(=O)OCOC(C)=O)CC(=O)OCOC(C)=O` [Compound 24], the “fluorescence intensity enhancement upon calcium stimulation” value with CHO-K1 cells is listed as “unexpected better fluorescence intensity enhancement”. Also, in series [1], the solubility turned out to be 2.18 µg/mL (≈ 2.11 µM). The “fluorescence intensity compared with the corresponding BAPTA compounds” value in series [2] is “much greater than that of the corresponding BAPTA compounds”.
For the molecule `CC(=O)OCOC(=O)CN(CCOCCOc1cc(C2=C3C(C)=CC(C)=[N+]3[B-](F)(F)n3c(C)cc(C)c32)ccc1N(CC(=O)OCOC(C)=O)CC(=O)OCOC(C)=O)CC(=O)OCOC(C)=O` [Compound 188], the solubility in series [1] amounted to 1.29 µg/mL (≈ 1.34 µM).
